In patent US9012427B2, “Pharmaceutical combinations comprising a thionucleotide analog” (Alios BioPharma, Inc., priority 2012, dated 2015) one finds IC50 data, which are given here for three compounds.

Each structure is given as a SMILES string. Where two headings read alike, the source gives them in different places.

The assay concerns genotype 1b replicon carrying the firefly luciferase reporter. Briefly: HCV replicon in vitro combination assay, dual and triple combination (Example 1). The class given is cell-based. The settings on record: Hepatitis C virus, 72 h, read-out: Individual IC50 values. How it is done:
All compounds were dissolved in 100% DMSO (dimethyl sulfoxide) to a stock concentration of 10 mM and stored at −20° C. Serial 2-fold or 3-fold dilution series of compounds were prepared in 100% DMSO at 400-fold of the final concentration to be used in cell culture experiments that would result in a final DMSO concentration of 0.25% in growth medium.
Drug combination studies were carried out using the transient replicon system. On day one, in vitro transcribed RNA of a genotype 1b replicon carrying the firefly luciferase reporter was transfected into Huh-7-ET-cured cells using Minis transfection reagent. (Lohmann V et al., “Replication of subgenomic hepatitis C virus RNAs in a hepatoma cell line” Science (1999) 285(5424):110-113, which is hereby incorporated by reference in its entirety) Ten thousand transfected cells were cultured in complete DMEM medium [DMEM medium supplemented with 2 mM L-glutamine, 1× non-essential amino acids, 10% heat inactivated FBS and PenStrep (100 units/mL penicillin and 100 ug/mL streptomycin)] in the central 60 wells of 96-well, flat bottom, tissue culture treated plates and cultured at 37° C./5% CO2 humidified incubator for 24 h. The next day, compounds were serially diluted (2× or 3× dilution series) in 100% DMSO, mixed together in a checkerboard fashion and added to cells, and the plates were returned to the incubator for an additional 72 h. […] At the end of the incubation, cells from one set of the plates were lysed and the luciferase activity was measured using a luciferase assay kit. […]
The effects of dual combinations were evaluated using the Bliss independence model. (Greco et al., “The search for synergy: a critical review from a response surface perspective” Pharmacol. Rev. (1995) 47(2):331-385, which is hereby incorporated by reference in its entirety) The experimental data (RLU) was analyzed by using MacSynergy, a three-dimensional analytical method developed by Prichard and Shipman. […] The volume of the peak or depression is calculated to quantify the overall synergy or antagonism produced.

Where [1] appears, read: single compound, genotype 1b transient replicon in Huh-7-ET-cured cells, n = 3.

With `CC(C)OC(=O)[C@H](C)N[P@](=S)(OC[C@H]1O[C@@H](n2ccc(=O)[nH]c2=O)[C@](C)(O)[C@@H]1O)Oc1ccccc1` [Compound 1004], the 50% inhibitory concentration (IC50) was 357 nM.
For `COc1ccc2c(O[C@@H]3C[C@H]4C(=O)N[C@]5(C(=O)NS(=O)(=O)C6CC6)C[C@H]5/C=C\CCCCN(C)C(=O)[C@@H]4C3)cc(-c3nc(C(C)C)cs3)nc2c1C` [Compound 3013, TMC-435], under setting [1], the IC50 stood at 2.1 nM.
Turning to `COC(=O)N[C@H](C(=O)N1CCC[C@H]1c1ncc(-c2ccc(-c3ccc(-c4cnc([C@@H]5CCCN5C(=O)[C@@H](NC(=O)OC)C(C)C)[nH]4)cc3)cc2)[nH]1)C(C)C` [Compound 3043, Daclatasvir], the IC50 under setting [1] is 0.0114 nM.
